Test system: IL-17A-induced G-CSF production in human normal keratinocyte (NHK)
Assay: NHK Assay: IL-17A-induced G-CSF production in human normal keratinocyte
Type: cell-based
Details: Homo sapiens, Keratinocyte, 24 h, IL-17A 5 ng/mL, simple average if tested more than once
Protocol: IL-17A acts directly on keratinocytes through binding to dimeric receptor IL-17RA/RC and drives the production of a number of inflammatory mediators known to be elevated in psoriasis lesional tissue. IL-17A small molecule inhibitors that block the IL-17A to interact with IL-17R would inhibit the IL-17A signaling in its targeted cells such as keratinocytes. The compound functional activity is evaluated for its impact on IL-17A-induced G-CSF production in human normal keratinocyte (NHK).
Adult normal human keratinocytes are cultured in keratinocyte growth medium (Lonza) in a flask till reaching ˜90% confluence, then cells are transferred to a 384-well plate at density of 3000-4000 cell/well. Recombinant human IL-17A (Gibco PHC9174) is pre-incubated with titrated compound or DMSO for 1 h at rt then added to the cell culture plate. The final concentration of IL-17A is 5 ng/mL and DMSO is 0.2%, in the culture containing 5% FBS. Cells are cultured/treated for 24 h at 37° C. Supernatants are collected and G-CSF production is measured through HTRF technology using Human G-CSF Kit (CisBio). G-CSF concentration was extrapolated from the standard curve and IC50 is determined using GraphPad Prism. Cell viability is also evaluated using CellTiter-Glo kit (Promega) and effect of compound on cell viability is compared to DMSO control.

First: CO[C@@H](CC(F)(F)F)[C@H](NC(=O)c1nonc1C1CC1)c1nc2cc(CN3C[C@@H](C(F)(F)F)NC3=O)ccc2[nH]1 (relative stereo) [Example 46, 4-Cyclopropyl-N-((1R*,2S*)-4,4,4-trifluoro-2-methoxy-1-(5-(((S)-2-oxo-4-(trifluoromethyl)imidazolidin-1-yl)methyl)-1H-benzo[d]imidazol-2-yl)butyl)-1,2,5-oxadiazole-3-carboxamide]
Second: CO[C@H](CC(F)(F)F)[C@@H](NC(=O)c1nonc1C1CC1)c1nc2cc(CN3C[C@@H](C(F)(F)F)NC3=O)ccc2[nH]1 (single isomer, unassigned) [Example 45, 4-Cyclopropyl-N-((1S*,2R*)-4,4,4-trifluoro-2-methoxy--(5-(((S)-2-oxo-4-(trifluoromethyl)imidazolidin-1-yl)methyl)-1H-benzo[d]imidazol-2-yl)butyl)-1,2,5-oxadiazole-3-carboxamide]
The IC50 of the first is lower: < 50 nM for the first, 50 to 100 nM for the second. The first is the more potent here.

`[2H]C1([2H])NC(=O)N([C@@H](c2ccc3[nH]c([C@H](COC(C)(C)C(F)(F)F)NC(=O)c4nonc4C)nc3c2)C2CC2)CC1(F)F` [Example 81, N-[(1R)-1-[5-[(R)-Cyclopropyl-(4,4-dideuterio-5,5-difluoro-2-oxo-hexahydropyrimidin-1-yl)methyl]-1H-benzimidazol-2-yl]-2-(2,2,2-trifluoro-1,1-dimethyl-ethoxy)ethyl]-4-methyl-1,2,5-oxadiazole-3-carboxamide] and `[2H]C1([2H])NC(=O)N([C@@H](c2ccc3[nH]c([C@H](COC(C)(C)C(F)(F)F)NC(=O)c4nonc4C)nc3c2)C2CC2)C([2H])([2H])C1(F)F` [Example 80, N—((R)-1-(5-((R)-Cyclopropyl(5,5-difluoro-2-oxotetrahydropyrimidin-1(2H)-yl-4,4,6,6-d4)methyl)-1H-benzo[d]imidazol-2-yl)-2-((1,1,1-trifluoro-2-methylpropan-2-yl)oxy)ethyl)-4-methyl-1,2,5-oxadiazole-3-carboxamide] cannot be ordered by IC50: < 50 nM for the first, < 50 nM for the second.

`CO[C@@H](CC(F)(F)F)[C@H](NC(=O)c1nonc1C)c1nc2cc(CN3C[C@@H](C(F)(F)F)NC3=O)ccc2[nH]1` (relative stereo) [Example 91, 4-Methyl-N-((1R*,2S*)-4,4,4-trifluoro-2-methoxy-1-(5-(((S)-2-oxo-4-(trifluoromethyl)imidazolidin-1-yl)methyl)-1H-benzo[d]imidazol-2-yl)butyl)-1,2,5-oxadiazole-3-carboxamide] and `C[C@@H](O[C@H](C)C(F)(F)F)[C@H](NC(=O)c1nonc1C1CC1)c1nc2ccc(CN3C[C@@H](C(F)(F)F)NC3=O)c(F)c2[nH]1` [Example 93, 4-Cyclopropyl-N-[(1R,2R)-1-[7-fluoro-6-[[(4S)-2-oxo-4-(trifluoromethyl)imidazolidin-1-yl]methyl]-1H-benzimidazol-2-yl]-2-[(1R)-2,2,2-trifluoro-1-methyl-ethoxy]propyl]-1,2,5-oxadiazole-3-carboxamide] cannot be ordered by IC50: < 50 nM for the first, < 50 nM for the second.

`COC[C@H](c1ccc2[nH]c([C@@H](NC(=O)c3nonc3C3CC3)[C@@H](C)OC3CC3)nc2c1)N1C[C@@H](C(F)(F)F)NC1=O` [Example 42, N-((1R,2R)-2-Cyclopropoxy-1-(5-((S)-2-methoxy-1-((S)-2-oxo-4-(trifluoromethyl)imidazolidin-1-yl)ethyl)-1H-benzo[d]imidazol-2-yl)propyl)-4-cyclopropyl-1,2,5-oxadiazole-3-carboxamide] and `COC[C@H](c1ccc2[nH]c([C@@H](NC(=O)c3nonc3C3CC3)[C@@H](C)OC3CC3)nc2c1)N1CC(F)(F)CNC1=O` [Example 43, N-((1R,2R)-2-Cyclopropoxy-1-(5-((S)-1-(5,5-difluoro-2-oxotetrahydropyrimidin-1(2H)-yl)-2-methoxyethyl)-1H-benzo[d]imidazol-2-yl)propyl)-4-cyclopropyl-1,2,5-oxadiazole-3-carboxamide] cannot be ordered by IC50: < 50 nM for the first, < 50 nM for the second.

`COC[C@H](c1ccc2[nH]c([C@@H](NC(=O)c3nonc3C)[C@@H](C)OC3CC3)nc2c1)N1CC(F)(F)CNC1=O` [Example 65, N-((1R,2R)-2-Cyclopropoxy-1-(5-((S)-1-(5,5-difluoro-2-oxotetrahydropyrimidin-1(2H)-yl)-2-methoxyethyl)-1H-benzo[d]imidazol-2-yl)propyl)-4-methyl-1,2,5-oxadiazole-3-carboxamide] and `C[C@H](O[C@H](C)[C@H](NC(=O)c1nonc1C1CC1)c1nc2cc([C@@H](COC3CC3)N3CC(F)(F)CNC3=O)ccc2[nH]1)C(F)(F)F` [Example 67, N-((1R,2R)-1-(5-((S)-2-Cyclopropoxy-1-(5,5-difluoro-2-oxotetrahydropyrimidin-1(2H)-yl)ethyl)-1H-benzo[d]imidazol-2-yl)-2-(((S)-1,1,1-trifluoropropan-2-yl)oxy)propyl)-4-cyclopropyl-1,2,5-oxadiazole-3-carboxamide] cannot be ordered by IC50: < 50 nM for the first, < 50 nM for the second.

`COCC(c1ccc2[nH]c([C@H](COC(C)(C)C(F)(F)F)NC(=O)c3nonc3C)nc2c1)N1C[C@@](C)(C(F)(F)F)NC1=O` (single isomer, unassigned) [Example 63, N—((R)-1-(5-((R*)-2-Methoxy-1-((S)-4-methyl-2-oxo-4-(trifluoromethyl)imidazolidin-1-yl)ethyl)-1H-benzo[d]imidazol-2-yl)-2-((1,1,1-trifluoro-2-methylpropan-2-yl)oxy)ethyl)-4-methyl-1,2,5-oxadiazole-3-carboxamide] and `Cc1nonc1C(=O)N[C@@H](COC(C)(C)C(F)(F)F)c1nc2cc([C@@H](C3CC3)N3CC(CC(F)(F)F)NC3=O)ccc2[nH]1` (single isomer, unassigned) [Example 88, N—((R)-1-(5-((R)-Cyclopropyl((R*)-2-oxo-4-(2,2,2-trifluoroethyl)imidazolidin-1-yl)methyl)-1H-benzo[d]imidazol-2-yl)-2-((1,1,1-trifluoro-2-methylpropan-2-yl)oxy)ethyl)-4-methyl-1,2,5-oxadiazole-3-carboxamide] cannot be ordered by IC50: < 50 nM for the first, < 50 nM for the second.

`[2H]C1([2H])NC(=O)N([C@@H](c2ccc3[nH]c([C@H](COC(C)(C)C(F)(F)F)NC(=O)c4nonc4C4CC4)nc3c2)C2CC2)CC1(F)F` [Example 82, 4-Cyclopropyl-N-[(1R)-1-[5-[(R)-cyclopropyl-(4,4-dideuterio-5,5-difluoro-2-oxo-hexahydropyrimidin-1-yl)methyl]-1H-benzimidazol-2-yl]-2-(2,2,2-trifluoro-1,1-dimethyl-ethoxy)ethyl]-1,2,5-oxadiazole-3-carboxamide] and `[2H]C1([2H])NC(=O)N([C@@H](c2ccc3[nH]c([C@H](COC(C)(C)C(F)(F)F)NC(=O)c4nonc4C4CC4)nc3c2)C2CC2)C([2H])([2H])C1(F)F` [Example 78, 4-Cyclopropyl-N—((R)-1-(5-((R)-cyclopropyl(5,5-difluoro-2-oxotetrahydropyrimidin-1(2H)-yl-4,4,6,6-d4)methyl)-1H-benzo[d]imidazol-2-yl)-2-((1,1,1-trifluoro-2-methylpropan-2-yl)oxy)ethyl)-1,2,5-oxadiazole-3-carboxamide] cannot be ordered by IC50: < 50 nM for the first, < 50 nM for the second.

`Cc1nonc1C(=O)N[C@H](c1nc2c(F)cc([C@@H](C3CC3)N3C[C@@H](C(F)(F)F)NC3=O)cc2[nH]1)[C@@H](C)O[C@H](C)C(F)(F)F` [Example 86, N-[(1R,2R)-1-[6-[(R)-Cyclopropyl-[(4S)-2-oxo-4-(trifluoromethyl)imidazolidin-1-yl]methyl]-4-fluoro-1H-benzimidazol-2-yl]-2-[(1R)-2,2,2-trifluoro-1-methyl-ethoxy]propyl]-4-methyl-1,2,5-oxadiazole-3-carboxamide] and `[2H]C1([2H])NC(=O)N([C@@H](c2ccc3[nH]c([C@H](COC(C)(C)C(F)(F)F)NC(=O)c4ccnn4C(C)C)nc3c2)C2CC2)C([2H])([2H])C1(F)F` [Example 79, N—((R)-1-(5-((R)-Cyclopropyl(5,5-difluoro-2-oxotetrahydropyrimidin-1(2H)-yl-4,4,6,6-d4)methyl)-1H-benzo[d]imidazol-2-yl)-2-((1,1,1-trifluoro-2-methylpropan-2-yl)oxy)ethyl)-1-isopropyl-1H-pyrazole-5-carboxamide] cannot be ordered by IC50: < 50 nM for the first, < 50 nM for the second.

Same assay, conditions: IL-17A 5 ng/mL, 24 h, simple average if tested more than once

`Cc1nonc1C(=O)N[C@@H](COC(C)(C)C(F)(F)F)c1nc2cc([C@@H](C3CC3)N3CC(CC(F)(F)F)NC3=O)ccc2[nH]1` (single isomer, unassigned) [Example 89, N—((R)-1-(5-((R)-Cyclopropyl((S*)-2-oxo-4-(2,2,2-trifluoroethyl)imidazolidin-1-yl)methyl)-1H-benzo[d]imidazol-2-yl)-2-((1,1,1-trifluoro-2-methylpropan-2-yl)oxy)ethyl)-4-methyl-1,2,5-oxadiazole-3-carboxamide] and `COCC(c1ccc2[nH]c([C@H](COC(C)(C)C(F)(F)F)NC(=O)c3nonc3C)nc2c1)N1C[C@@](C)(C(F)(F)F)NC1=O` (single isomer, unassigned) [Example 64, N—((R)-1-(5-((S*)-2-Methoxy-1-((S)-4-methyl-2-oxo-4-(trifluoromethyl)imidazolidin-1-yl)ethyl)-1H-benzo[d]imidazol-2-yl)-2-((1,1,1-trifluoro-2-methylpropan-2-yl)oxy)ethyl)-4-methyl-1,2,5-oxadiazole-3-carboxamide] cannot be ordered by IC50: > 100 nM for the first, > 100 nM for the second.
